Measurements as given in ChEMBL document CHEMBL3228010, “Potential antitumor agents. 29. Quantitative structure-activity relationships for the antileukemic bisquaternary ammonium heterocycles” (J Med Chem, 1979).

Legend:
L1210 [1] = test: Antitumor activity against mouse L1210 cells […] in ip dosed C3H X DBA2 F1 hybrid mouse on day 0 and dosed once daily on days 1 to 5 assessed as increase in life span relative to control; format: functional
[2] = Lipophilic-hydrophilic balance, Rm of the compound by partition chromatography; format: physicochemical
Mus musculus = test: Toxicity in ip dosed C3H X DBA2 F1 hybrid mouse […] with mouse L1210 cells on day 0 and dosed once daily on days 1 to 5 measured after 50 days; format: organism-based; details: in vivo, 1200 h
L1210 [3] = test: Antitumor activity against mouse L1210 cells […] in ip dosed C3H X DBA2 F1 hybrid mouse on day 0 and dosed at LD10 level once daily on days 1 to 5 assessed as increase in life span relative to control; format: functional

Row | Structure (SMILES) | D40 (L1210 [1]) | Rm [2] | LD10 (Mus musculus) | log(ILSmax) (L1210 [3])
1 | CCC[n+]1cccc(NC(=O)c2ccc(NC(=O)c3ccc(C(=O)Nc4ccc5c(ccc[n+]5CCC)c4)cc3)cc2)c1.Cc1ccc(S(=O)(=O)[O-])cc1.Cc1ccc(S(=O)(=O)[O-])cc1 | 10.2 mg/kg | 0.44 | 20 mg/kg | 2.17
2 | CCC[n+]1cccc2cc(NC(=O)COc3ccc(C(=O)Nc4ccc5c(ccc[n+]5CCC)c4)cc3)ccc21.Cc1ccc(S(=O)(=O)[O-])cc1.Cc1ccc(S(=O)(=O)[O-])cc1 | 6.3 mg/kg | 0.15 | 8.3 mg/kg | 1.59
3 | CCC[n+]1cccc(NC(=O)c2ccc(NC(=O)c3ccc(C(=O)Nc4ccc(C(=O)Nc5ccc[n+](CCC)c5)cc4OC)cc3)c(OC)c2)c1.Cc1ccc(S(=O)(=O)[O-])cc1.Cc1ccc(S(=O)(=O)[O-])cc1 | 140 mg/kg | 0.3 | 140 mg/kg | 1.6
4 | CC[n+]1cccc(NC(=O)c2ccc(NC(=O)C34CCC(C(=O)Nc5ccc(C(=O)Nc6ccc[n+](CC)c6)cc5)(CC3)CC4)cc2)c1.Cc1ccc(S(=O)(=O)[O-])cc1.Cc1ccc(S(=O)(=O)[O-])cc1 | 18 mg/kg | 0.59 | 27 mg/kg | 1.65
5 | CCC[n+]1ccc(Nc2ccc(NC(=O)c3ccc(Nc4cc[n+](CCC)c5ccccc45)cc3N)cc2)cc1.[I-].[I-] | 24 mg/kg | 0.71 | 24 mg/kg | 1.6
6 | CCC[n+]1ccc(Nc2ccc(NC(=O)/C=C/c3ccc(/C=C/C(=O)Nc4ccc(Nc5cc[n+](CCC)cc5)cc4)cc3)cc2)cc1.[Br-].[Br-] | 13 mg/kg | 0.46 | 25 mg/kg | 1.85
7 | CC[n+]1cccc2cc(NC(=O)/C=C/c3ccc(C(=O)Nc4ccc5c(ccc[n+]5CC)c4)cc3)ccc21.Cc1ccc(S(=O)(=O)[O-])cc1.Cc1ccc(S(=O)(=O)[O-])cc1 | 5 mg/kg | 0.11 | 9 mg/kg | 1.7
8 | CC[n+]1ccc(Nc2ccc(C(=O)Nc3ccc(Nc4cc[n+](CC)c5ccc(N)cc45)cc3)cc2)cc1.[I-].[I-] | 0.7 mg/kg | 0.19 | 9 mg/kg | 2.23
9 | CCC[n+]1cc(-c2ccc(NC(=O)c3ccc(Nc4cc[n+](CCC)c5ccccc45)cc3)cc2)c(N)nc1N.[I-].[I-] | 15.8 mg/kg | 0.68 | 40 mg/kg | 1.85
10 | CC[n+]1cccc2ccc(NC(=O)c3ccc(NC(=O)c4ccc(C(=O)Nc5ccc6ccc[n+](CC)c6c5)cc4)cc3)cc21.Cc1ccc(S(=O)(=O)[O-])cc1.Cc1ccc(S(=O)(=O)[O-])cc1 | 12 mg/kg | -0.4 | 30 mg/kg | 2
11 | C[n+]1ccc(Nc2ccc(NC(=O)c3ccc(C(=O)Nc4ccc(C(=O)Nc5ccc[n+](C)c5)cc4)cc3)cc2)cc1.Cc1ccc(S(=O)(=O)[O-])cc1.Cc1ccc(S(=O)(=O)[O-])cc1 | 0.8 mg/kg | 0.07 | 9 mg/kg | 2.03
12 | CC[n+]1ccc(Nc2ccc(NC(=O)c3ccc(Nc4cc[n+](CC)c5ccc(N)cc45)cc3N)cc2)cc1.[I-].[I-] | 1.4 mg/kg | 0.37 | 17 mg/kg | 2.33
13 | CCCCC[n+]1cccc2cc(NC(=O)c3ccc(C(=O)Nc4ccc5c(ccc[n+]5CCCCC)c4)cc3)ccc21.Cc1ccc(S(=O)(=O)[O-])cc1.Cc1ccc(S(=O)(=O)[O-])cc1 | 55 mg/kg | 0.92 | 57 mg/kg | 1.62
14 | CC[n+]1cccc(-c2ccc(NC(=O)c3ccc(C(=O)Nc4ccc(-c5ccc(-c6ccc(-c7ccc[n+](CC)c7)cc6)cc5)cc4)cc3)cc2)c1.Cc1ccc(S(=O)(=O)[O-])cc1.Cc1ccc(S(=O)(=O)[O-])cc1 | 5.6 mg/kg | -0.44 | 43 mg/kg | 2.2
